We go through one compound from ChEMBL document CHEMBL6120971 (J Med Chem, 2024).

Molecules are shown by their SMILES. Active and inactive are the calls of the source.

The target of series [1] is T1, Protein cereblon/Hepatocyte growth factor receptor (Homo sapiens, UniProt P08581+Q96SW2). Description: PROTAC activity at CRBN/c-MET in human MKN-45 cells assessed as induction of c-MET degradation at 100 nM preincubated with MG132 for 2 hrs followed by compound addition and measured after 24 hrs by Western blot analysis. Format: cell-based. (In general: A western blot detects proteins with antibodies after separation by electrophoresis.)
T1 sequence (P08581 25-1390 limits assumed): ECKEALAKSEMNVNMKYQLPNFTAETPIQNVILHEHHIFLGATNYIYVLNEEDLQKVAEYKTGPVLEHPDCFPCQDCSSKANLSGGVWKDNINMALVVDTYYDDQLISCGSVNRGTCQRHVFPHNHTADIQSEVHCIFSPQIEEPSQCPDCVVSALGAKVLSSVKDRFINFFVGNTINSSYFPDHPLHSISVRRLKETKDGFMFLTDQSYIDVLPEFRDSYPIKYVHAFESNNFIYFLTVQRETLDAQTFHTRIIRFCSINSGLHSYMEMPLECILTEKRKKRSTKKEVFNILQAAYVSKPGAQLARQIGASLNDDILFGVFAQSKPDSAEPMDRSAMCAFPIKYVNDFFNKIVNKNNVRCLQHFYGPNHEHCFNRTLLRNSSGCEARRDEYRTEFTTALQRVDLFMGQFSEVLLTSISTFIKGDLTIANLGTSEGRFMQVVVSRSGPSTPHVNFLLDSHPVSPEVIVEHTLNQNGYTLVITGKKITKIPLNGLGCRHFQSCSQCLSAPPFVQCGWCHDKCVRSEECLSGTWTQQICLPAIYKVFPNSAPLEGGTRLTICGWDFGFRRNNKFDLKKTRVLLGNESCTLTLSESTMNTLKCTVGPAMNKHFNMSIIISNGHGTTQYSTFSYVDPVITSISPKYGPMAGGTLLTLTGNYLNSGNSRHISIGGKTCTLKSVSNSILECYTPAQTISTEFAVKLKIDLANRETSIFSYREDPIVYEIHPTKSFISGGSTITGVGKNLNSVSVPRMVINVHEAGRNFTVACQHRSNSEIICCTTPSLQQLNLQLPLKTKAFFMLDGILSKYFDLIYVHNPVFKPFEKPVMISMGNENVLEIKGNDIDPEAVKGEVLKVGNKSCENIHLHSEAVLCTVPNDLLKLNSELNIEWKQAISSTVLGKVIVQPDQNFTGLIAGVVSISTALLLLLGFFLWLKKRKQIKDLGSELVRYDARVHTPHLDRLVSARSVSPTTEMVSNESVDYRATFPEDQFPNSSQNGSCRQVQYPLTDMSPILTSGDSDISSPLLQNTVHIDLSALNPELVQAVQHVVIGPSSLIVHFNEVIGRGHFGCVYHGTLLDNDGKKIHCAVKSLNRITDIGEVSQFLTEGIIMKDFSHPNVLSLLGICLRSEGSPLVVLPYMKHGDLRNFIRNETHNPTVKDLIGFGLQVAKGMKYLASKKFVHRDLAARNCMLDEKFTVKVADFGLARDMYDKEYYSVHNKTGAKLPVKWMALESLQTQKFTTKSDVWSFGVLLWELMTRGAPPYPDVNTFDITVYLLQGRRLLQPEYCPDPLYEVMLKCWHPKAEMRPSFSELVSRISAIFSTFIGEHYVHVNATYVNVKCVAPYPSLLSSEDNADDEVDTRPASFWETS
T1 sequence (Q96SW2 whole entry partner): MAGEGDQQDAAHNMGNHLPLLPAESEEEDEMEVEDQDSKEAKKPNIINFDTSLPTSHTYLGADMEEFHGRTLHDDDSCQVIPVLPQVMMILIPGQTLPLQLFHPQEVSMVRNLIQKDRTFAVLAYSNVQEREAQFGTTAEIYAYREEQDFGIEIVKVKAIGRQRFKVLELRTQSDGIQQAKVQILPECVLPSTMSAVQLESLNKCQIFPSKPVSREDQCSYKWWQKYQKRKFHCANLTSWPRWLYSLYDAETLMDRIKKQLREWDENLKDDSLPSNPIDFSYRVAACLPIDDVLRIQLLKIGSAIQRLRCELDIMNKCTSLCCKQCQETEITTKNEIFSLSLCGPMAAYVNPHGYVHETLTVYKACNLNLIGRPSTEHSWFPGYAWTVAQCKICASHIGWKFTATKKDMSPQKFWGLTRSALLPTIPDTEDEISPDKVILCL

The subject of series [2] is Mus musculus. As to the kind of experiment: Downregulation of c-MET protein level in BALB/c nude mouse liver xenografted with human MKN-45 cells at 10 mg/kg, po measured after 48 hrs by Western blot analysis. Format: functional, organism-based.
Series [3] can be described thus: Downregulation of c-MET protein level in human MKN-45 cells assessed as fold change at 100 nM incubated for 24 hrs by MS-based quantitative proteomics analysis relative to control. Format: functional.
Series [4] is described as follows: Half-life in male Sprague-Dawley rat at 10 mg/kg, iv measured after 24 hrs by LC-MS/MS analysis. Format: ADME, organism-based. The conditions noted are these: in vivo.
Series [5] in a line: Half-life in male Sprague-Dawley rat at 10 mg/kg, po measured after 24 hrs by LC-MS/MS analysis. The format is ADME, organism-based. To be noted: in vivo.
Series [6] in a line: Toxicity in BALB/c nude mouse xenografted with human MKN-45 cells assessed as body weight loss at 10 to 40 mg/kg, po administered once daily for 21 days. The format is organism-based. To be noted: in vivo, 504 h, dose 10-40 mg/kg, time 21 day. (In general: A xenograft is tissue or cells of one species grown in another, often human tumour cells in immunodeficient mice.)
Series [7] has as its system Mus musculus. As to the kind of experiment: Downregulation of c-MET protein level in BALB/c nude mouse lung xenografted with human MKN-45 cells at 10 mg/kg, po measured after 48 hrs by Western blot analysis. Format: functional, organism-based.
The nature of series [8]: MRT (0 to infinity) in male Sprague-Dawley rat at 10 mg/kg, po measured after 24 hrs by LC-MS/MS analysis. To be noted: in vivo. The format is ADME, organism-based.
A short description of series [9]: Cmax in male Sprague-Dawley rat at 10 mg/kg, iv measured after 24 hrs by LC-MS/MS analysis. Format: ADME, organism-based. To be noted: in vivo.
In another series the test system is MKN-45. Description: Antiproliferative activity against human MKN-45 cells incubated for 72 hrs by CCK8 assay. The format is functional, cell-based. To be noted: MKN-45, 72 h. For orientation: Tetrazolium assays rely on reduction of a dye to a coloured formazan, in cell work by metabolically active cells.
For series [10], the target named is T1, Protein cereblon/Hepatocyte growth factor receptor. Description: PROTAC activity at CRBN/c-MET in human PC-9 cells assessed as induction of c-MET degradation at 3.125 to 50 nM incubated for 24 hrs by Western blot analysis. Format: cell-based. To be noted: dose 3.125-50 nM.
The subject of another series is Hs746T. As to the kind of experiment: Inhibition of c-MET/Akt signaling pathway activation in human Hs746T cells at 12.5 to 200 nM incubated for 24 hrs by Western blot analysis. To be noted: dose 12.5-200 nM. Format: cell-based.
Series [11] in a line: Toxicity in BALB/c nude mouse xenografted with human MKN-45 cells assessed as effect on lung morphology at 10 to 40 mg/kg, po administered once daily for 21 days by H and E staining based analysis. The format is organism-based. To be noted: in vivo, 504 h, dose 10-40 mg/kg, time 21 day.
The target in series [12] is T1, Protein cereblon/Hepatocyte growth factor receptor. Description: PROTAC activity at CRBN/c-MET in human A549 cells assessed as induction of c-MET degradation at 12.5 to 200 nM incubated for 24 hrs by Western blot analysis. The format is cell-based. To be noted: dose 12.5-200 nM.
The target is the same in series [13]. As to the kind of experiment: In vivo PROTAC activity at CRBN/c-MET in BALB/c nude mouse xenografted with human MKN-45 cells assessed as decrease in c-MET protein level in tumor at 10 to 40 mg/kg, po administered once daily for 21 days and measured after 24 hrs post last dose by Western blot analysis. Format: functional, organism-based. The conditions noted are these: dose 10-40 mg/kg, time 22.0 day.

A short description of series [14]: AUC (0 to infinity) in male Sprague-Dawley rat at 10 mg/kg, iv measured after 24 hrs by LC-MS/MS analysis. Format: ADME, organism-based. To be noted: in vivo.
For series [15], the target named is T1, Protein cereblon/Hepatocyte growth factor receptor. As to the kind of experiment: PROTAC activity at CRBN/c-MET in human MKN-45 cells assessed as induction of c-MET degradation at 6.25 nM incubated for 24 hrs by Western blot analysis. Format: cell-based.
A short description of series [16]: Toxicity in BALB/c nude mouse xenografted with human MKN-45 cells assessed as effect on kidney morphology at 10 to 40 mg/kg, po administered once daily for 21 days by H and E staining based analysis. Format: organism-based. To be noted: in vivo, 504 h, dose 10-40 mg/kg, time 21 day.

The term half-life denotes the time needed for the level to fall by half in the phase considered. High values mean slow decline, low ones rapid decline. Broadly, the MRT inf is a mean duration of stay, worked out from the concentration-time curve. Broadly, the Cmax is the peak of the concentration-time curve. A word on the IC50: it is the concentration at which inhibition is half-maximal. A high value points to a need for much substance. As a reminder, the AUC(0-inf) is the area under the concentration-time curve extrapolated to infinity. A high value points to high exposure. Regarding `O=C1CCC(N2C(=O)c3ccc(N4CCN(CC5CCN(C(=O)c6ccc(-c7cnc8ncc(Cc9ccc%10ncccc%10c9)n8n7)cc6F)CC5)CC4)cc3C2=O)C(=O)N1` (stereo not drawn), the outcome in series [1] and in series [12] was inactive. Further, the Activity entry with Mus musculus [2] is “Not active; Favorable Tissue Specificity Of Compound Observed”; in [6], “Non-toxic”; in the series with Mus musculus [7], “Not active; Favorable Tissue Specificity Of Compound Observed”; in series [11] it was “Non-toxic”; in series [16], “Non-toxic”. The “fold change (FC)” value in series [3] was determined as 29.6. In addition, the half-life was 5.35 h in series [4] and 4.13 h in series [5]. In [8], this compound had an MRT inf of 6.66 h. This compound also returned a Cmax in series [9] of 1650 ng/mL. In the series with MKN-45, this compound gave an IC50 of 4.37 nM. Moreover, the result in series [10], in series [13] and in [15] was Active. In addition, in the series with Hs746T, the inhibition entry was “Active”. In series [14], this compound yielded an AUC(0-inf) of 2520 ng·h/mL.
